# According to publication PMC12040169 (PLOS Biology, 2025):
# Test: in vitro
# Conditions: human, hela cells, % viability
row,Compound,"viability at 28.5 h, 10 µM [%]"
1,COc1cc(CC(=O)Nc2cccc(-c3ccc(SC(F)(F)F)cc3)c2)cc(OC)c1OC [CBK132426],100
2,Cc1cc(C)nc(N/C(=N\C(=O)Nc2ccccc2)NCc2cccnc2)n1 [CBK132681],92.2
3,O=C(c1ccoc1)N1CCC2(CCCN(Cc3ccc(OC(F)(F)F)cc3)C2)C1 (stereo not drawn) [CBK132801],114
4,O=C(c1ccoc1)N1CCC2(CCCN(Cc3c(F)cccc3F)C2)C1 (stereo not drawn) [CBK132806],95.1
5,O=C(CN1CCCC2(CCN(C(=O)c3ccoc3)C2)C1)Nc1ccc(F)c(Cl)c1 (stereo not drawn) [CBK132822],92.7
6,CCN1CCCC2(CCN(C(=O)c3ccoc3)C2)C1 (stereo not drawn) [CBK132832],97.7
7,O=C1NC(=O)C(CCCCN2CCCC3(CCN(C(=O)c4ccoc4)C3)C2)N1 (stereo not drawn) [CBK132833],96.8
8,Cc1nc(CN2CCCC3(CCN(C(=O)c4ccoc4)C3)C2)cs1 (stereo not drawn) [CBK132838],97.6
9,COc1ccc(C(=O)N2CCC3(CCCN(Cc4nc5ccccc5[nH]4)C3)C2)cc1OC (stereo not drawn) [CBK132847],93.9
10,COc1ccc(C(=O)N2CCC3(CCCN(CC(=O)Nc4ncccn4)C3)C2)cc1OC (stereo not drawn) [CBK132860],105
11,COc1ccc(C(=O)N2CCC3(CCCN(CCN(C)C)C3)C2)cc1OC (stereo not drawn) [CBK132873],95.6
12,CC(C)(C)OC(=O)N1CCC(Oc2nccc3c2ccn3Cc2ccc(S(C)(=O)=O)cc2)CC1 [CBK132881],89.2
13,COc1ccc(C(=O)N2CCN(CC(=O)N3CCOCC3)CC2)cc1 [CBK133150],108
14,COc1cc(NC(=O)Cn2cnc3c2c(=O)n(C)c(=O)n3C)c(OC)cc1Cl [CBK133231],99.2
15,Cn1c(=O)c2c(ncn2CC(=O)Nc2ccccc2I)n(C)c1=O [CBK133275],95.6
16,Cn1c(=O)c2c(ncn2CC(=O)Nc2cccnc2)n(C)c1=O [CBK133286],94.5
17,Cn1c(=O)c2c(ncn2CC(=O)Nc2cccc(Br)c2)n(C)c1=O [CBK133287],90.7
18,Cc1cc(Br)ccc1NC(=O)Cn1cnc2c1c(=O)n(C)c(=O)n2C [CBK133289],95.6
19,Cn1c(=O)c2c(ncn2CC(=O)Nc2ccc(C#N)cc2)n(C)c1=O [CBK133466],90.9

row,Compound,"viability at 28.5 h, 10 µM [%]"
1,Cn1c(=O)c2c(ncn2CC(=O)Nc2ccc3ccccc3c2)n(C)c1=O [CBK133722],81.2
2,CCCn1c(NCc2cccc(OC)c2O)nc2ccccc21 [CBK133763],96.4
3,Cc1cccc(OCC(=O)N2CCN(Cc3ccccn3)CC2)c1 [CBK134023G],92.3
4,COC(=O)c1ccc(NC(=O)Cn2nnc(-c3ccc(CN4CCOCC4)cc3)n2)cc1 [CBK134589],95.4
5,Cc1ccc2cc(CN(CCN(C)C)C(=S)Nc3ccccc3)c(=O)[nH]c2c1 [CBK134909],104
6,COc1ccc2[nH]c(=O)c(CN(CCN(C)C)C(=S)Nc3ccc(F)cc3)cc2c1 [CBK135011],97.1
7,Cc1ccc(NC(=S)N(CCN(C)C)Cc2cc3ccc(C)cc3[nH]c2=O)c(C)c1 [CBK135134],92.4
8,CN(C)CCN(Cc1cc2cc3c(cc2[nH]c1=O)OCO3)C(=S)Nc1ccc(F)cc1 [CBK135186],91.2
9,COc1ccc2[nH]c(=O)c(CN(CCCN3CCOCC3)C(=O)Nc3cccc(Cl)c3)cc2c1 [CBK135402],96.8
10,Nc1ccc(-c2nnn(CC(=O)NC3CCCCC3)n2)cc1 [CBK135771],86.7
11,COc1ccc(CNC(=O)Cn2nnc(-c3ccc(NC(=O)C4CCCCC4)cc3)n2)cc1 [CBK135876],101
12,Cc1cc(C)nc(N2CCC(C(=O)NCc3ccc(Cl)cc3)CC2)n1 [CBK136319],94.8
13,CC(C)(C)OC(=O)NC(C)(C)C(=O)N1C[C@H](C(=O)N2CCC3(CC2)CN(S(C)(=O)=O)c2ccccc23)[C@@H](c2nc3ccccc3s2)C1 [CBK136737],91.5
14,O=C(c1ccc(OC(F)(F)F)cc1)N1CCC2(CCN(Cc3ccccc3)CC2)C1 [CBK136746],101
15,O=C(c1cc[nH]c1)N1CCC2(CCN(Cc3ccccc3)CC2)C1 [CBK136756],86.9
16,Cc1cc(C(=O)N2CCC(Cn3cncn3)(C3CCCCC3)CC2)n[nH]1 [CBK136786],99.2
17,O=C(C1COc2ccccc2O1)N1CCC(Cn2cncn2)(C2CCCCC2)CC1 (stereo not drawn) [CBK136792],102
18,CSCCC(=O)N1CCC(Cn2cncn2)(C2CCCCC2)CC1 [CBK136799],102
19,Cc1cn(CC(=O)N2CCC(Cn3cncn3)(C3CCCCC3)CC2)c(=O)[nH]c1=O [CBK136800],88.4

row,Compound,"viability at 28.5 h, 10 µM [%]"
1,O=C(CN1CCOCC1)N1CCC(Cn2cncn2)(C2CCCCC2)CC1 [CBK136803],95.7
2,O=C(c1ccco1)N1CCC(Cn2cncn2)(C2CCCCC2)CC1 [CBK136811],87.2
3,CN1CCC[C@H]1C(=O)N1CCC(Cn2cncn2)(C2CCCCC2)CC1 [CBK136818],101
4,CC(C)(N)CC(=O)N1CCC(Cn2cncn2)(C2CCCCC2)CC1 [CBK136822],89.4
5,O=C(c1cncnc1)N1CCC(Cn2cncn2)(C2CCCCC2)CC1 [CBK136823],92.7
6,O=C(c1ccc2[nH]c(=O)[nH]c2c1)N1CCC(Cn2cncn2)(C2CCCCC2)CC1 [CBK136824],104
7,O=C(c1ccc(Oc2ccccc2)cc1)N1CCC2(CCN(Cc3ccccc3)C2)C1 (stereo not drawn) [CBK136833],99.3
8,O=C1NC(=O)C(CC(=O)N2CCC3(CCN(Cc4ccccc4)C3)C2)N1 (stereo not drawn) [CBK136850],88.8
9,O=C(c1c(F)cccc1F)N1CCCC2(CCN(Cc3ccccc3)C2)C1 (stereo not drawn) [CBK136886],108
10,O=C(O)CCC(=O)N1CCCC2(CCN(Cc3ccccc3)C2)C1 (stereo not drawn) [CBK136890],97
11,CCOC(=O)C1(C2CCCCC2)CCN(C(=O)c2cccc(C(F)(F)F)c2)CC1 [CBK136920],91.7
12,CCOC(=O)C1(C2CCCCC2)CCN(C(=O)Cc2ccc(Cl)c(Cl)c2)CC1 [CBK136922],95.2
13,CCOC(=O)C1(C2CCCCC2)CCN(C(=O)C2COc3ccccc3O2)CC1 (stereo not drawn) [CBK136925],101
14,CCOC(=O)C1(C2CCCCC2)CCN(C(=O)CCSC)CC1 [CBK136929],113
15,CCOC(=O)C1(C2CCCCC2)CCN(C(=O)C(c2ccccc2)c2ccccc2)CC1 [CBK136943],106
16,CCOC(=O)C1(C2CCCCC2)CCN(C(=O)C2CCN(C)CC2)CC1 [CBK136948],92.7
17,CCNC(=O)N1CC2(CCN(Cc3ccc4nsnc4c3)CC2)c2ccccc21 [CBK136968],102
18,CC(C)C(=O)N1CC2(CCN(Cc3nc4ccccc4s3)CC2)c2ccccc21 [CBK136980],96
19,CCN1CC2(CCN(Cc3nc4ccccc4s3)CC2)c2ccccc21 [CBK136993],108

# Same assay, conditions: human, hela cells, % viability, bulk resorufin, single well
row,Compound,"viability at 28.5 h, 10 µM [%]"
1,CCOC(=O)C1(c2ccccc2)CCN(C(=O)Cc2c[nH]cn2)CC1 [CBK132205],94.3
2,CCOC(=O)C1(c2ccccc2)CCN(C(=O)c2ccc3ncccc3c2)CC1 [CBK132206],107
3,CCOC(=O)N1CCC2(CC1)OCc1ccc(-c3ccc(S(C)(=O)=O)cc3)cc1O2 [CBK133035],86.1
